Laboratory results: patent US11254944B2, “Agrobacterium derived cell penetrating peptides as nanocarriers” (priority 2017, dated 2022)
Where a SMILES comes first, the peptide text is derived from it. The star is where a group is joined. FITC = O=C1OC2(c3ccc(O)cc3Oc3cc(O)ccc32)c2ccc(NC(=S)*)cc21

Key:
[1] = test system: HeLa cells; assay: Cellular uptake of FITC-Vir in HeLa cells (confocal microscopy, flow cytometry); type: cell-based
Procedure: FIG. 4: illustrates the cellular translocation of FITC-Vir in HeLa cells (A) confocal microscopy (a) Untreated (b) Vir (15 μM) (c) Tat (5 μM) (d) M-Tat (5 μM) (e) Dextran Sulphate (5 μM). (B) Quantitative estimation of uptake in HeLa cells as assessed by flow cytometry.
(§1) FIG. 2 illustrates that in case of protoplasts, the uptake of Vir is affected in the presence of either endocytic inhibitors.
In one such embodiment, a method of targeting and delivering macromolecules to HeLa cells, as representative of mammalian system, using the peptide nanocarrier includes incubating the HeLa cells with the agrobacterium derived cell penetrating peptide nanocarrier Vir.
(§2) In the said embodiment, a process for identification of optimum concentration of the nano-carrier Vir in the HeLa cells is substantially the same as identification of optimum concentration of the nano-carrier Vir in the mesophyll protoplasts of T. aestivum as discussed above and is illustrated in FIG. 4. It is observed that the internalization in HeLa cells starts from 5 μM but a distinct nuclear localization is observed from 15 μM onwards as shown in FIG. 4. As observed with protoplasts, the peptide uptake in HeLa cells also increases with increasing concentration of peptide with 60-70% cells showing uptake at 15 μM and more than 90% cells showing uptake at 30 μM. However, unlike protoplasts, the viability of HeLa cells is not compromised greatly as 94% cells remained viable at 15 μM and 84% cells at 30 μM.

[2] = test system: HeLa cells; assay: Reporter protein (β-galactosidase) delivery by Vir in HeLa cells; type: cell-based; details: β-galactosidase 1 μg, Vir 15 μM
Description: (§3) FIG. 6: illustrates an analysis of cargo delivery ability of Vir peptide in plant and mammalian systems. Macromolecule delivery by Vir in (A) Protoplast of wheat (B) leaf bases (C) root tips with (a) no peptide (b) GUS buffer only (c) β-glucuronidase only (d) Vir only (e) Vir-β-galactosidase; (D) HeLa cells with (a) non peptide (b) X-gal staining solution only (c) β-galactosidase only (d) Vir only (e) Vir-β-galactosidase.
(§4) In one embodiment, the ability of the peptide nanocarrier to deliver macromolecular cargoes in cells is evaluated by using β-glucuronidase enzyme as the reporter protein whereas β-galactosidase is employed for delivery in mammalian cells. The reporter proteins are non-covalently complexed with peptide nanocarrier, SEQ ID NO: 3 with the sequence KRPRRKRARGNRR at room temperature for 1 hr. The reporter proteins are used at a concentration of 1 μg while the peptide nanocarrier is used at the optimized concentration that is, 15 μM for complex formation. The peptide-protein complexes thus formed, were incubated with mammalian cells, plant protoplasts and tissues (root tips and leaf bases) further for 1 hour at 18-37 deg C. and room temperature, at pH range from 5.5 to 7.5 respectively. The enzyme delivery by peptide nanocarrier is examined by staining the cells with respective staining solutions. […]

[3] = test system: root tips and leaf bases of T. aestivum; assay: Translocation of Vir in meristematic tissues (root tips, leaf bases); type: cell-based; details: 5-40 μM
Procedure: FIG. 3: illustrates the translocation of Vir in various tissues of T. aestivum (A) leaf bases (B) root tips. Different panels represent (a) Untreated (b) Dextran sulphate (5 μM) (c) M-Tat (5 μM) (d) Tat (5 μM) (e) Vir: 5 μM (f) 10 μM (g) 15 μM (h) 20 μM (i) 30 μM (j) 40 μM.
In another embodiment, a method of targeting and delivering macromolecules to a meristematic tissue that is, root tips and leaf bases, of T. aestivum(wheat plant) using the agrobacterium derived cell penetrating peptide nanocarrier Vir includes incubating the meristematic tissues that is, root tips and leaf bases, of T. aestivum with the peptide nanocarrier.
In the said embodiment, a process for identification of optimum concentration of the peptide nanocarrier in the meristematic tissues of T. aestivum is substantially the same as identification of optimum concentration of the nano-carrier Vir in the mesophyll protoplasts of T. aestivum as discussed above and is illustrated in FIG. 3.

[4] = test system: root tips and leaf bases; assay: Reporter protein (β-glucuronidase) delivery by Vir in root tips and leaf bases; type: cell-based, T. aestivum; details: β-glucuronidase 1 μg, Vir 15 μM
Description: as §3, §4

[5] = test system: Protoplast of wheat; assay: Reporter protein (β-glucuronidase) delivery by Vir in wheat protoplasts; type: cell-based, T. aestivum; details: β-glucuronidase 1 μg, Vir 15 μM
Description: as §3, §4

[6] = Viability of HeLa cells after peptide incubation; type: cell-based; details: human, read-out: cells remained viable
Procedure: as §2

[7] = test system: mesophyll protoplasts of T. aestivum; assay: Cellular uptake of FITC-Vir in mesophyll protoplasts (confocal microscopy, fluorimetry); type: cell-based; details: for CPP activity compared with the parent peptide: 15 μM
Procedure: FIG. 2: illustrates the cellular internalization of FITC-Vir in mesophyll protoplasts of T. aestivum (A) Confocal microscopic images of cellular uptake (a) untreated (No peptide) (b) Vir (15 μM) (c) Tat (5 μM) (d) M-Tat (5 μM) (e) Dextran Sulphate (5 μM). (B) Quantitative estimation of uptake in protoplasts as assessed by fluorimetry.
In the said embodiment, a process for identification of optimum concentration and mechanism of cellular uptake of Vir of the peptide nano-carrier in the mesophyll protoplasts of T. aestivum is described below and illustrated in FIG. 2 by employing several endocytic inhibitors such as sodium azide, nocodazole, cytochalasin-D cytochalasin D, and chlorpromazine for blocking different energy-dependent pathways.
It is observed that with increasing concentration, the number of cells internalizing the peptide also increases proportionally.
as §1
The viability of the protoplasts is affected at higher concentrations of the peptide, as a drop of 20-30% at 15 μM and 60-70% at 30 μM in the percentage of viable cells is observed with respect to untreated cells (viability 90%).

Compound: C[C@H](NC(=O)[C@H](CCCNC(=N)N)NC(=O)[C@H](CCCCN)NC(=O)[C@H](CCCNC(=N)N)NC(=O)[C@H](CCCNC(=N)N)NC(=O)[C@@H]1CCCN1C(=O)[C@H](CCCNC(=N)N)NC(=O)[C@H](CCCCN)NC(=S)Nc1ccc2c(c1)C(=O)OC21c2ccc(O)cc2Oc2cc(O)ccc21)C(=O)N[C@@H](CCCNC(=N)N)C(=O)NCC(=O)N[C@@H](CC(N)=O)C(=O)N[C@@H](CCCNC(=N)N)C(=O)N[C@@H](CCCNC(=N)N)C(=O)O [Vir, KRPRRKRARGNRR] ({FITC}-KRPRRKRARGNRR-OH; N-terminus and C-terminus assumed)
- concentration from which distinct nuclear localization is observed [1]: ≥ 15 µM
- concentration from which internalization starts [1]: ≥ 5 µM
- cells showing uptake ([1]; 15 μM): 60-70%
- cells showing uptake ([1]; 30 μM): more than 90%
- cellular uptake reduced ([1]; at 4° C.): 20%
- cellular uptake reduced ([1]; in presence of chlorpromazine): 20%
- cellular uptake in presence of other inhibitors ([1]; other endocytic inhibitors): remained unaffected
- efficiency of β-galactosidase delivery [2]: more than 90%
- uptake in the tissues [3]: increases with increasing concentration of the peptide
- delivery efficiency ([4]; leaf bases): 90%
- delivery efficiency ([4]; root tips): 90%
- delivery efficiency [5]: 50%
- viability at 15 µM ([6]; 15 μM): 94%
- viability at 30 µM ([6]; 30 μM): 84%
- cells show uptake [7]: 10-15%
- concentration from which prominent nuclear localization is observed [7]: ≥ 15 µM
- number of cells exhibiting cellular uptake ([7]; distinct nuclear localization): 50-60%
- uptake in the presence of endocytic inhibitors ([7]; sodium azide, nocodazole, cytochalasin D, chlorpromazine): affected

Compound: KAPARKRARGNRR [M-Vir1, mutated VirD2 peptide, mutation in KRPR to KAPA]
- CPP activity compared with the parent peptide ([1]; 15 μM): increased
- CPP activity compared with the parent peptide [7]: increased

Compound: KRPRRKAAAGNRR [M-Vir2, mutated VirD2 peptide, mutation in RKRAR to RKAAA]
- CPP activity compared with the parent peptide ([1]; 15 μM): remains similar to the parent peptide
- CPP activity compared with the parent peptide [7]: remains similar to the parent peptide
